Data on 19 compounds can be found in PubChem BioAssay (NCI).

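A five-concentration, 48-hour dose response in 96-well plates underlies each endpoint, interpolated linearly between surrounding concentrations. At the TGI there is no net growth.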

Some test systems named below: SF-539 CNS; ACHN renal; SK-OV-3 ovarian; A498 renal; 786-0 renal; MALME-3M melanoma; MOLT-4 leukemia; SK-MEL-28 melanoma; HCC-2998 colon; CAKI-1 renal; LOX IMVI melanoma; SK-MEL-2 melanoma; HOP-92 NSCLC; T-47D breast.
What all share (test): growth of human tumour cells (NCI), 48 h

For `CSc1ccc2c(cc1=O)[C@@H](NC(=O)c1cc(O)c(O)c(O)c1)CCc1cc(O)c(O)c(O)c1-2`, the TGI in the test with SF-539 CNS is 52.3 µM; in the test with ACHN renal, greater than 100 µM; in the test on SK-OV-3 ovarian, greater than 100 µM; in the test with A498 renal, greater than 100 µM; in the test on 786-0 renal, greater than 100 µM; with MALME-3M melanoma it was 93.3 µM. Besides, the TGI with MOLT-4 leukemia is 45.6 µM; with SK-MEL-28 melanoma it was 94.8 µM; in the test with HCC-2998 colon, greater than 100 µM.
As for `Cc1cc(C)nc(NC(P(=O)(O)O)P(=O)(O)O)n1`, the TGI in the test with SF-539 CNS, in the test on CAKI-1 renal, in the test with ACHN renal, in the test with SK-OV-3 ovarian, with 786-0 renal and with MALME-3M melanoma was greater than 100 µM each time. Further, the TGI with LOX IMVI melanoma and in the test with HCC-2998 colon was greater than 100 µM throughout.
For the compound `CCCCCCc1cc2cc(C(=O)Nc3ccc(F)cc3)c(=N)oc2cc1O`, the TGI in the test with SF-539 CNS was 4.82 µM; in the test with CAKI-1 renal, 13.6 µM; with ACHN renal, greater than 100 µM; in the test on SK-OV-3 ovarian, 8.09 µM; in the test on A498 renal it was greater than 100 µM; with 786-0 renal, 77.6 µM. In addition, the TGI is greater than 100 µM in the test with MALME-3M melanoma; 4.93 µM in the test with LOX IMVI melanoma; 5.59 µM in the test with MOLT-4 leukemia; 9.98 µM with SK-MEL-2 melanoma; 43.5 µM with SK-MEL-28 melanoma; greater than 100 µM with HCC-2998 colon.
Consider `C1=NC(N(Cc2ccccc2)Cc2ccccc2)N(Cc2ccccc2)N1` (centres undefined), for which the TGI in the test on SF-539 CNS worked out at 29.5 µM; in the test with CAKI-1 renal it was 46.1 µM; in the test on ACHN renal, 57 µM; in the test with HOP-92 NSCLC, 25.6 µM; in the test with SK-OV-3 ovarian it was 67.2 µM; with A498 renal it was 32.2 µM. The TGI was 35.4 µM with 786-0 renal; 25.8 µM in the test on MALME-3M melanoma; 30.4 µM in the test with LOX IMVI melanoma; greater than 100 µM in the test on MOLT-4 leukemia; 31.8 µM in the test with SK-MEL-2 melanoma; 37.2 µM in the test on SK-MEL-28 melanoma. This compound also showed a TGI with HCC-2998 colon of 36.4 µM.
With `NC1(CCNC(=O)c2ccccc2)CCN(C(=O)c2ccccc2)CC1`, the TGI in the test with T-47D breast, with SF-539 CNS, in the test with CAKI-1 renal, in the test on ACHN renal, in the test with HOP-92 NSCLC and in the test on SK-OV-3 ovarian was greater than 100 µM in each case. The TGI in the test on 786-0 renal, in the test with MALME-3M melanoma, in the test with MOLT-4 leukemia and in the test with SK-MEL-2 melanoma was greater than 100 µM each time.
Turning to `CC(=O)OCCOCNC(=S)N/N=C/c1ccc([N+](=O)[O-])s1`, the TGI with SF-539 CNS, in the test with ACHN renal, with HOP-92 NSCLC, in the test with SK-OV-3 ovarian, with A498 renal and with 786-0 renal was greater than 100 µM each time. Also, the TGI in the test with MALME-3M melanoma, with LOX IMVI melanoma, in the test on MOLT-4 leukemia, with SK-MEL-2 melanoma, with SK-MEL-28 melanoma and in the test on HCC-2998 colon was greater than 100 µM throughout.
In the case of `CCOC(=O)c1ccc(-c2ccc(Cl)cc2)[nH]1`, the TGI in the test with SF-539 CNS, in the test on ACHN renal, in the test with HOP-92 NSCLC, in the test on SK-OV-3 ovarian, in the test on 786-0 renal and in the test with MALME-3M melanoma was greater than 10 µM throughout. The TGI in the test on MOLT-4 leukemia, with SK-MEL-2 melanoma and in the test with HCC-2998 colon was greater than 10 µM throughout.
For the compound `CCOC(=O)CCC(NC(=O)c1ccc(NCc2ccc3nc(-c4ccccc4)c(Cl)nc3c2)cc1)C(=O)OCC` (centres undefined), the TGI in the test with SF-539 CNS is greater than 100 µM; with CAKI-1 renal, greater than 100 µM; with ACHN renal, greater than 100 µM; in the test on HOP-92 NSCLC, 27.3 µM; in the test on SK-OV-3 ovarian it was greater than 100 µM; in the test with A498 renal it was 78.6 µM. Also, the TGI in the test on 786-0 renal is greater than 100 µM; with MALME-3M melanoma it was 26 µM; in the test with LOX IMVI melanoma it was greater than 100 µM; with MOLT-4 leukemia it was 44.9 µM; in the test with SK-MEL-2 melanoma it was 25.9 µM; in the test on HCC-2998 colon it was greater than 100 µM.
In the case of `COc1cccc(-c2nc(-c3cnccn3)n(C/C=C/c3ccccc3)n2)c1`, the TGI with SF-539 CNS, with ACHN renal, in the test with HOP-92 NSCLC, in the test with 786-0 renal, in the test on MALME-3M melanoma and in the test with LOX IMVI melanoma was greater than 10 µM each time. The TGI in the test with MOLT-4 leukemia, with SK-MEL-2 melanoma and with HCC-2998 colon was greater than 10 µM in each case.
As for `NC(=O)c1cn(Cc2ccccc2)c(=O)n1Cc1ccccc1`, the TGI in the test on SF-539 CNS, with CAKI-1 renal, in the test on ACHN renal, in the test on HOP-92 NSCLC, in the test with SK-OV-3 ovarian and with A498 renal was greater than 100 µM each time. Further, the TGI in the test with 786-0 renal, in the test on LOX IMVI melanoma, with MOLT-4 leukemia, in the test on SK-MEL-2 melanoma, with SK-MEL-28 melanoma and in the test on HCC-2998 colon was greater than 100 µM each time.
Regarding `CC(=O)O[C@]12CCCCCC1C1(O)C(O)CCCCC12` (some centres undefined), the TGI with ACHN renal, in the test with SK-OV-3 ovarian, with 786-0 renal, in the test on MALME-3M melanoma, in the test with LOX IMVI melanoma and in the test on MOLT-4 leukemia was greater than 100 µM each time. In addition, the TGI in the test with SK-MEL-2 melanoma and in the test with SK-MEL-28 melanoma was greater than 100 µM in each case.
Turning to `COc1ccc2nc3cc(Cl)ccc3c(Sc3ccc(NC(C)=O)cc3)c2c1`, the TGI in the test on SF-539 CNS was 27.3 µM; in the test on CAKI-1 renal, greater than 50.6 µM; in the test on ACHN renal it was 18.7 µM; in the test on HOP-92 NSCLC, greater than 27 µM; with SK-OV-3 ovarian, greater than 61.9 µM; with A498 renal, greater than 60.9 µM. Besides, the TGI was greater than 20.1 µM in the test on 786-0 renal; greater than 51.8 µM in the test on MALME-3M melanoma; 11.4 µM with LOX IMVI melanoma; 84.4 µM in the test with MOLT-4 leukemia; greater than 26.4 µM in the test with SK-MEL-2 melanoma; 38.7 µM with SK-MEL-28 melanoma. The same compound gave a TGI in the test on HCC-2998 colon of 5.93 µM.
For `Cc1ccc(NC(=O)C(=O)C2C(=O)NC(=O)NC2=O)cc1C`, the TGI in the test on SF-539 CNS, in the test with CAKI-1 renal, in the test on ACHN renal, in the test with HOP-92 NSCLC, in the test on SK-OV-3 ovarian and with 786-0 renal was greater than 100 µM each time. Moreover, the TGI in the test on MALME-3M melanoma, in the test on LOX IMVI melanoma, in the test on MOLT-4 leukemia, in the test with SK-MEL-2 melanoma, in the test with SK-MEL-28 melanoma and in the test with HCC-2998 colon was greater than 100 µM in each case.
As for `O=C1c2ccccc2C(=O)N1C/C=N/NS(=O)(=O)c1ccc(Br)cc1`, the TGI in the test with SF-539 CNS, in the test on CAKI-1 renal, with ACHN renal, in the test with HOP-92 NSCLC, in the test on SK-OV-3 ovarian and with A498 renal was greater than 100 µM in each case. Besides, the TGI in the test on 786-0 renal, in the test on MALME-3M melanoma, in the test with MOLT-4 leukemia, with SK-MEL-2 melanoma, with SK-MEL-28 melanoma and with HCC-2998 colon was greater than 100 µM throughout.
In the case of `COc1cc(-c2nnc3n2NC=C(C(=O)O)S3)cc(OC)c1OC`, the TGI in the test with SF-539 CNS is greater than 61.4 µM; in the test on CAKI-1 renal it was greater than 100 µM; in the test with ACHN renal, greater than 100 µM; in the test on HOP-92 NSCLC, greater than 100 µM; in the test on SK-OV-3 ovarian, greater than 100 µM; in the test on A498 renal it was greater than 100 µM. Also, the TGI was greater than 76.3 µM with 786-0 renal; greater than 100 µM in the test on MALME-3M melanoma; greater than 100 µM with LOX IMVI melanoma; greater than 100 µM in the test with MOLT-4 leukemia; greater than 100 µM in the test with SK-MEL-2 melanoma; greater than 100 µM in the test with SK-MEL-28 melanoma. The TGI in the test with HCC-2998 colon is greater than 100 µM.
Regarding `CC(NC(=O)Cc1ccccc1)NC(=O)C(C)C(=O)NCc1ccccc1` (centres undefined), the TGI with T-47D breast was greater than 100 µM; with SF-539 CNS, greater than 100 µM; with CAKI-1 renal, greater than 100 µM; in the test on ACHN renal, greater than 100 µM; in the test on HOP-92 NSCLC, 88.8 µM; in the test on SK-OV-3 ovarian, greater than 100 µM. Also, the TGI in the test with 786-0 renal, in the test with MALME-3M melanoma, in the test on MOLT-4 leukemia and in the test on SK-MEL-2 melanoma was greater than 100 µM throughout.
Consider `C=C1CC[C@H]2C(=O)OC(c3ccoc3)C[C@]2(C)C/C=C\C=C/1C(=O)OC` (some centres undefined), for which the TGI with SF-539 CNS, in the test with CAKI-1 renal, in the test on ACHN renal, in the test on HOP-92 NSCLC, with SK-OV-3 ovarian and with A498 renal was greater than 25 µM throughout. Moreover, the TGI with 786-0 renal, with MALME-3M melanoma, with LOX IMVI melanoma, in the test with SK-MEL-2 melanoma, in the test on SK-MEL-28 melanoma and in the test on HCC-2998 colon was greater than 25 µM each time.
In the case of `C1COCCSC2=C(SCCO1)SC(=C1SC3=C(SCCOCCOCCS3)S1)S2`, the TGI in the test with SF-539 CNS, in the test with CAKI-1 renal, with ACHN renal, in the test with HOP-92 NSCLC, in the test on SK-OV-3 ovarian and with A498 renal was greater than 100 µM in each case. Also, the TGI in the test on 786-0 renal, in the test with MALME-3M melanoma, with LOX IMVI melanoma, in the test with MOLT-4 leukemia, with SK-MEL-2 melanoma and in the test on SK-MEL-28 melanoma was greater than 100 µM each time. The TGI in the test with HCC-2998 colon is greater than 100 µM.
Turning to `O=C(NCCN1CCOCC1)c1ccc(I)cc1`, the TGI in the test on SF-539 CNS, in the test with CAKI-1 renal, in the test on ACHN renal, in the test with SK-OV-3 ovarian, with A498 renal and in the test with 786-0 renal was greater than 100 µM each time. Besides, the TGI in the test with LOX IMVI melanoma, with MOLT-4 leukemia, in the test with SK-MEL-28 melanoma and in the test on HCC-2998 colon was greater than 100 µM each time.
